Experimental data: US20050171161A1, “Method of treatment or prevention of obesity” (priority 2002, published 2005)
Structures can show the parent of a compound that is named as a salt. Where two headings read alike, the source gives them in different places.

Key:
[1] = molecular target: T1, recombinant human CB2 receptor (Homo sapiens, UniProt P34972); test: CB2 Receptor Binding Assay
T1 construct: expressed in transfected cells; host or cells: CHO cells (membranes)
Experimental: CB2 Receptor Binding Assay
The binding assay for CB2 receptor is conducted similarly, with recombinant human CB2 receptor expressed in CHO cells.

Potassium channel (Ikr) = Potassium channel (Ikr) (Homo sapiens, UniProt Q12809); test: Potassium channel (Ikr) binding
Sequence of Potassium channel (Ikr) (Q12809 whole entry): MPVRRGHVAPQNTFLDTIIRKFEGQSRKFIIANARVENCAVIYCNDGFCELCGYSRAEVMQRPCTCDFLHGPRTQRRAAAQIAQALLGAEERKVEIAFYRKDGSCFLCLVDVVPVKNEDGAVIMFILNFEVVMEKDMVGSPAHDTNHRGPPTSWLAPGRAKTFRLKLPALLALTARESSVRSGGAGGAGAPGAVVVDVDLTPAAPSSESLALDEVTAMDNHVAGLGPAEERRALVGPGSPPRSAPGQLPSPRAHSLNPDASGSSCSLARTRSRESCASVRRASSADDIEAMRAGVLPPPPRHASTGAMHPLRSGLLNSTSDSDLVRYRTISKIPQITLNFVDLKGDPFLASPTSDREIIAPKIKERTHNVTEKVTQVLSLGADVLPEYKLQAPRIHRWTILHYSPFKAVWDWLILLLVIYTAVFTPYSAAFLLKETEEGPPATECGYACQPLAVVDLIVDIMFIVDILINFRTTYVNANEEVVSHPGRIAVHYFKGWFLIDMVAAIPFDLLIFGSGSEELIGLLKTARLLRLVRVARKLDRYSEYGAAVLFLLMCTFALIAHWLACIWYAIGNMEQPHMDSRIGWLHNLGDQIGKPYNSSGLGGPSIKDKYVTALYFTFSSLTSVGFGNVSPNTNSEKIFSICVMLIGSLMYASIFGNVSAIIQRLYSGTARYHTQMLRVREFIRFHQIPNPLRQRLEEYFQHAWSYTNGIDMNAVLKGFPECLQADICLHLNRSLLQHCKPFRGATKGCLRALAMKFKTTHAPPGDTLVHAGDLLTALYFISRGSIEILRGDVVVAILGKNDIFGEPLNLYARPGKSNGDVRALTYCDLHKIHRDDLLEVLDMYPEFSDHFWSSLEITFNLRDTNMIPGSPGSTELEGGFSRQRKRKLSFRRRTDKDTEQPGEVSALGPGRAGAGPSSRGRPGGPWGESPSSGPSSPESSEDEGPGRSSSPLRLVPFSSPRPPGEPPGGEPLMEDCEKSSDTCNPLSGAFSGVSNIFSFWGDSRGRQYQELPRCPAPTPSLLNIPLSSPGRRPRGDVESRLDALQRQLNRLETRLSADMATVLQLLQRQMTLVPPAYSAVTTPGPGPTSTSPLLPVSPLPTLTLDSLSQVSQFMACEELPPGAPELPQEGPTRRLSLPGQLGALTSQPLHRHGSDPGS
Excerpt: (§1) Ion channel assays have also been reported in the literature. The following are representative.

[2] = molecular target: T2, recombinant human CB1 receptor (Homo sapiens, UniProt P21554); test: Cannabinoid Receptor-1 (CB1) Binding Assay
T2 construct: expressed in transfected cells; host or cells: CHO cells (membranes)
T2 sequence (P21554 whole entry): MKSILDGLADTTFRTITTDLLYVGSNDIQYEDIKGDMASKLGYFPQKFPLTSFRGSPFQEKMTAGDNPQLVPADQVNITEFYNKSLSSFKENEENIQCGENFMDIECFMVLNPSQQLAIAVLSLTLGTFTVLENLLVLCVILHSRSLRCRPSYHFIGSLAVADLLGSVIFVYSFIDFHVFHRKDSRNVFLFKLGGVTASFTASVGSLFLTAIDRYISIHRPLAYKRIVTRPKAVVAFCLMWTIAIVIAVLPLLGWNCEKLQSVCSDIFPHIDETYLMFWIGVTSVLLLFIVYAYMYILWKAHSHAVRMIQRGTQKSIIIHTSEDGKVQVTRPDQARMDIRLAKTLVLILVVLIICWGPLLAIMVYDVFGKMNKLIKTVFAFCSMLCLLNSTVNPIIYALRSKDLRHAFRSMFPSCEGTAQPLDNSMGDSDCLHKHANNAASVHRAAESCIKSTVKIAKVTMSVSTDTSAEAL
Experimental: Cannabinoid Receptor-1 (CB1) Binding Assay.
Binding buffer contains 50 mM Tris-HCl, pH7.4, 2.5 mM EDTA, 5 mM MgCl2, 0.5 mg/ml fatty acid free bovine serum albumin and protease inhibitors (Cat#P8340, from Sigma). To initiate the binding reaction, 5 μl of radioligand solution is added, the mixture is incubated with gentle shaking on a shaker for 1.5 hours at 30° C. The binding is terminated by using 96-well harvester and filtering through GF/C filter presoaked in 0.05% polyethylenimine. The bound radiolabel is quantitated using scintillation counter.

Calcium channel = Calcium channel binding
Excerpt: as §1

Sodium channel site 2 = Sodium channel site 2 binding
Excerpt: as §1

11β-HSD1 enzyme (hHSD1) = molecular target: T3, 11β-HSD1 enzyme (hHSD1) (Homo sapiens, UniProt P28845); test: 11β-HSD1 inhibition, Scintillation Proximity Assay; format: biochemical; conditions: SPA, tritiated cortisone, NADPH
T3 construct: expressed in transfected cells; host or cells: CHO transfectants (microsomes)
T3 sequence (P28845 whole entry): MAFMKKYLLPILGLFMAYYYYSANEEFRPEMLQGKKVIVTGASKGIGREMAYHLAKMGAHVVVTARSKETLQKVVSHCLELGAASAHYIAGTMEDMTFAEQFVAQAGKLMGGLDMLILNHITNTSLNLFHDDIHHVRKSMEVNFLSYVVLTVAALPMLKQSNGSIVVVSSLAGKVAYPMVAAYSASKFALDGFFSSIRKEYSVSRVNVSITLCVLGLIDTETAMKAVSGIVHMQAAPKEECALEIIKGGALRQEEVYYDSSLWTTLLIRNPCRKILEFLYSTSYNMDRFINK
Experimental: 11β-HSD1 Inhibition Constants
(§2) In vitro enzymatic activity is assessed for test compounds via a Scintillation Proximity Assay (SPA). Tritiated-cortisone substrate, NADPH cofactor and titrated compound are incubated with 11β-HSD1 enzyme at 37° C. to allow conversion to cortisol to progress. Following this incubation, protein A coated SPA beads, pre-blended with anti-cortisol monoclonal antibody and a non-specific 11β-HSD inhibitor, are added to each well. The mixture is shaken at 15° C. and then read on a liquid scintillation counter suitable for 96 well plates.
(§3) Percent inhibition is calculated relative to a non-inhibited control well, and IC50 curves are generated.
(§4) This assay is similarly applied to 11β-HSD2. Tritiated cortisol and NAD are used as the substrate and cofactor, respectively. 40 μL of substrate (25 nM ^3H-Cortisone+1.25 mM NADPH in 50 mM HEPES Buffer, pH 7.4) are added to designated wells on a 96 well plate. Solid compound is dissolved in DMSO at 10 mM followed by a subsequent 50 fold dilution in DMSO. The diluted material is then titrated 4 fold, seven times. 1 μL of each titrated compound is then added in duplicate to the substrate. To start the reaction, 10 μL of 11β-HSD1 microsome from CHO transfectants is added to each well at the appropriate concentration to yield approximately 10% conversion of the starting material. For ultimate calculation of percent inhibition, a series of wells is added that represent the assay minimum and maximum: one set that contains substrate without compound or enzyme (background), and another set that contains substrate and enzyme without any compound (maximum signal). The plates are spun briefly at a low speed in a centrifuge to pool the reagents, sealed with an adhesive strip, mixed gently, and incubated at 37° C. for 2 hours. After incubation, 45 μL of SPA beads, pre-suspended with anti-cortisol monoclonal antibody and non-specific 11β-HSD inhibitor, are added to each well. The plates are resealed and shaken gently for greater than 1.5 hours at 15° C. Data is collected on a plate based liquid scintillation counter such as a Topcount. To control for inhibition of anti-cortisol antibody/cortisol binding, substrate spiked with 1.25 nM [3]H cortisol is added to designated single wells. 1 μL of 200 μM compound is added to each of these wells, along with 10 μL of buffer instead of enzyme. Any calculated inhibition is due to compound interfering with the cortisol binding to the antibody on the SPA beads.

11β-HSD2 (hHSD2) = molecular target: T4, 11β-HSD2 (hHSD2) (Homo sapiens, UniProt P80365); test: 11β-HSD2 inhibition, Scintillation Proximity Assay; format: biochemical; conditions: SPA, tritiated cortisol, NAD
T4 sequence (P80365 1-405): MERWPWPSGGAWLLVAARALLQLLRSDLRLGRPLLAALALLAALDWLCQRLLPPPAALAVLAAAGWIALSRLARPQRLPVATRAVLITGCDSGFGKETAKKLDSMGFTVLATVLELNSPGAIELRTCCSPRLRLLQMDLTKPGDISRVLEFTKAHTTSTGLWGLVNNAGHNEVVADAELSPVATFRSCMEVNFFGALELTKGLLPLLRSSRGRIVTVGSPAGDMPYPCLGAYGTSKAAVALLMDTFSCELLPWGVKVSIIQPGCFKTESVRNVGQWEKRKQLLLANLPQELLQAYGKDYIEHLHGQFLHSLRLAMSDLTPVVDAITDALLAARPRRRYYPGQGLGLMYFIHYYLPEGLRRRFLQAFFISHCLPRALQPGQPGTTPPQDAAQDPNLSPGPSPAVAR
Experimental: as §2, §3, §4

[3] = CHO cell membranes, [3H]CP-55940 0.6 nM, read-out: hCB1 IC50

T1 sequence (P34972 whole entry): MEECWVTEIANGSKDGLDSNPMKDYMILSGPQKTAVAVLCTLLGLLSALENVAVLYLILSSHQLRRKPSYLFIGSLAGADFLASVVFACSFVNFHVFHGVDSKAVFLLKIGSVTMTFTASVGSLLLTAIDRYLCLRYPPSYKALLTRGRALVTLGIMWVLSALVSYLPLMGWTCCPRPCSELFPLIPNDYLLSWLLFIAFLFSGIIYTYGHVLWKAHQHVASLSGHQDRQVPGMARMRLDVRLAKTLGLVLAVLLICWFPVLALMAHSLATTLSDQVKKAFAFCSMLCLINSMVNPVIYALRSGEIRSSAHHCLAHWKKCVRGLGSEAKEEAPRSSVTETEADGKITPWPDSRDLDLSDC

Compound `Cn1c(C(=O)NN2CCCCC2)nc(-c2ccc(Cl)cc2Cl)c1-c1ccc(Cl)cc1` [Compound 2, N-(Piperidin-1-yl)-4-(2,4-dichlorophenyl)-5-(4-chlorophenyl)-1-methylimidazole-2-carboxamide] has an IC50 ([1]; CHO cells, read-out: hCB2 IC50) of 100 to 1000 nM, an Ion Channel Values K (Potassium channel (Ikr)) of 1.3 µM and an IC50 [2, 3] of less than 10 nM. It also gave an Ion Channel Values Ca (Calcium channel) of 1200 nM and an Ion Channel Values Na (Sodium channel site 2) of 6 µM.

Compound `Cc1ccc(-c2nc(C(=O)NN3CCCCC3)n(C)c2-c2ccc(C)cc2)cc1` [Compound 3, N-(Piperidin-1-yl)-4,5-di-(4-methylphenyl)-1-methylimidazole-2-carboxamide] has an IC50 ([1]; CHO cells, read-out: hCB2 IC50) greater than 1000 nM.

In the case of `Cc1ccc(-c2nc(C(=O)NC3CCCCC3)n(C)c2-c2ccc(C)cc2)cc1` [Compound 4, N-Cyclohexyl-4,5-di-(4-methylphenyl)-1-methylimidazole-2-carboxamide], the IC50 ([1]; CHO cells, read-out: hCB2 IC50) is reported as greater than 1000 nM and the IC50 [2] is reported as 100 to 1000 nM.

`Cn1c(C(=O)NC2CCCCC2)nc(-c2ccc(Cl)cc2Cl)c1-c1ccc(Cl)cc1` [Compound 5, N-(Cyclohexyl)-4-(2,4-dichlorophenyl)-5-(4-chlorophenyl)-1-methylimidazole-2-carboxamide] gave an IC50 [1] of 100 to 1000 nM, an Ion Channel Values K (Potassium channel (Ikr)) of 5.6 µM and an IC50 [2] of less than 10 nM. For the same compound, the Ion Channel Values Ca (Calcium channel) was 4600 nM and the Ion Channel Values Na (Sodium channel site 2) was 4 µM.

For `Cn1c(C(=O)Nc2ccccc2)nc(-c2ccc(Cl)cc2Cl)c1-c1ccc(Cl)cc1` [Compound 6, N-(Phenyl)-4-(2,4-dichlorophenyl)-5-(4-chlorophenyl)-1-methylimidazole-2-carboxamide], the IC50 ([1]; CHO cells, read-out: hCB2 IC50) was 100 to 1000 nM and the IC50 [2, 3] was 10 to 100 nM.

`CC12CC3(C)CC(C)(C1)CC(Cc1nnc4n1CCCCC4)(C2)C3` [Compound 7, 3-[(3,5,7-trimethyl-1-adamantyl)methyl]-6,7,8,9-tetrahydro-5H-[1,2,4]triazolo[4,3-a]azepine Trifluoroacetate Salt] gave an IC50 (11β-HSD1 enzyme (hHSD1)) of 10 to 100 nM and an IC50 (11β-HSD2 (hHSD2)) greater than 1000 nM.

`CCSc1nnc(C23CC4CC(CC(C4)C2)C3)n1CC` [Compound 8, 3-(1-adamantyl)-4-ethyl-5-(ethylthio)-4H-1,2,4-triazole] was tested, and the IC50 (11β-HSD1 enzyme (hHSD1)) was 10 to 100 nM and the IC50 (11β-HSD2 (hHSD2)) was greater than 1000 nM.

In the case of `COc1cc(-c2nnc(C34CC5CC(CC(C5)C3)C4)n2C)cc(OC)c1OC` [Compound 9, 3-(1-adamantyl)-5-(3,4,5-trimethoxyphenyl)-4-methyl-4H-1,2,4-triazole], the IC50 (11β-HSD1 enzyme (hHSD1)) is reported as less than 10 nM and the IC50 (11β-HSD2 (hHSD2)) is reported as less than 10 nM.

Work on `C1CCCCc2nnc(C34CC5CC(CC(C5)C3)C4)n2CCCC1` [Compound 10, 3-adamantanyl-4,5,6,7,8,9,10,11,12,3a-decahydro-1,2,4-triazolo[4,3-a][11]annulene] yielded an IC50 (11β-HSD1 enzyme (hHSD1)) of 100 to 1000 nM and an IC50 (11β-HSD2 (hHSD2)) greater than 1000 nM.
